Measurements: the supplement of paper PMC10307832

Assays:
Test in all cases: relative viability (nuclei count vs DMSO), 5 days (fraction); higher = more cells survive
[1] = compound: CC1=CC=C(C=C1)C(=O)CN2C3=C(CCCC3)SC2=N [Pifithrin_alpha] + Nc1nc2[nH]cc(CCc3ccc(C(=O)N[C@@H](CCC(=O)O)C(=O)O)cc3)c2c(=O)[nH]1 [Pemetrexed] (partner 0.2 µM)
Summary of the method: (§1)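 Medians of duplicate plates are given as relative viability. That measure is the nuclei count in treated wells divided by the count in vehicle wells. Counts were taken on 4× images of lung cancer cell lines in 1536-well plates, 5 days after pin-tool dosing the day after seeding with one drug alone or a fixed anchor-drug dose plus five library-drug doses (not always all listed) in √10 steps.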

Axitinib + Bortezomib = compound: CNC(=O)c1ccccc1Sc1ccc2c(/C=C/c3ccccn3)n[nH]c2c1 [Axitinib] + CC(C)C[C@H](NC(=O)[C@H](Cc1ccccc1)NC(=O)c1cnccn1)B(O)O [Bortezomib] (partner 0.002 µM)
Summary of the method: as §1

Axitinib + Luminespib = compound: CNC(=O)c1ccccc1Sc1ccc2c(/C=C/c3ccccn3)n[nH]c2c1 [Axitinib] + CCNC(=O)c1noc(-c2cc(C(C)C)c(O)cc2O)c1-c1ccc(CN2CCOCC2)cc1 [Luminespib] (partner 0.01 µM)
Summary of the method: as §1

Bemcentinib + Luminespib = compound: Nc1nc(Nc2ccc3c(c2)CC[C@@H](N2CCCC2)CC3)nn1-c1cc2c(nn1)-c1ccccc1CCC2 [Bemcentinib] + CCNC(=O)c1noc(-c2cc(C(C)C)c(O)cc2O)c1-c1ccc(CN2CCOCC2)cc1 [Luminespib] (partner 0.01 µM)
Summary of the method: as §1

Cell Line | relative viability ([1]; first compound 1 µM) | relative viability ([1]; first compound 3.162 µM) | relative viability ([1]; first compound 10 µM) | relative viability ([1]; first compound 31.62 µM) | relative viability ([1]; first compound 100 µM) | relative viability (Axitinib + Bortezomib; first compound 0.005 µM) | relative viability (Axitinib + Bortezomib; first compound 0.01581 µM) | relative viability (Axitinib + Bortezomib; first compound 0.05 µM) | relative viability (Axitinib + Bortezomib; first compound 0.1581 µM) | relative viability (Axitinib + Bortezomib; first compound 0.5 µM) | relative viability (Axitinib + Luminespib; first compound 0.005 µM) | relative viability (Axitinib + Luminespib; first compound 0.01581 µM) | relative viability (Axitinib + Luminespib; first compound 0.05 µM) | relative viability (Axitinib + Luminespib; first compound 0.1581 µM) | relative viability (Axitinib + Luminespib; first compound 0.5 µM) | relative viability (Bemcentinib + Luminespib; first compound 0.04 µM) | relative viability (Bemcentinib + Luminespib; first compound 0.1265 µM) | relative viability (Bemcentinib + Luminespib; first compound 0.4 µM) | relative viability (Bemcentinib + Luminespib; first compound 1.265 µM) | relative viability (Bemcentinib + Luminespib; first compound 4 µM)
NCI-H2126 | 0.448 | 0.656 | 0.625 | 0.56 | 0.643 | 1.15 | 1.05 | 1.07 | 1.04 | 1.11 | 0.82 | 0.921 | 0.963 | 0.876 | 0.912 | 0.893 | 0.973 | 0.81 | 0.975 | 0.939
NCI-H2228 | 0.406 | 0.416 | 0.335 | 0.252 | 0.298 | 1.31 | 0.829 | 0.886 | 0.954 | 1.07 | 0.142 | 0.118 | 0.147 | 0.174 | 0.138 | 0.128 | 0.152 | 0.159 | 0.111 | 0.134
NCI-H2347 | 0.406 | 0.416 | 0.441 | 0.485 | 0.447 | 1.26 | 0.752 | 1.36 | 0.798 | 0.692 | 0.299 | 0.432 | 0.948 | 0.323 | 0.505 | 0.631 | 0.438 | 0.866 | 0.5 | 0.417
NCI-H2405 | – | 0.86 | 0.957 | 0.802 | 0.971 | 1.03 | 0.982 | 1.03 | 0.946 | 0.958 | 0.863 | 0.809 | 0.839 | 0.779 | 0.866 | 0.659 | 0.716 | 0.609 | 0.754 | 0.656
NCI-H3122 | 0.224 | 0.198 | 0.184 | 0.166 | 0.203 | 0.904 | 1.03 | 1.04 | 1.05 | 1.07 | 0.0794 | 0.103 | 0.092 | 0.0739 | 0.0873 | – | 0.0968 | 0.102 | 0.0892 | 0.0707
PC-3 [JPC-3] | – | 1.08 | – | 0.769 | 1.04 | 0.98 | – | 0.807 | 0.833 | 0.964 | 0.663 | 0.653 | 0.712 | 0.739 | 0.779 | 0.722 | 0.695 | 0.712 | 0.69 | 0.674
PC-14 | 0.143 | 0.121 | 0.133 | 0.0962 | 0.0885 | 1.04 | 0.894 | 0.81 | 0.826 | 1.08 | 0.295 | – | 0.171 | 0.141 | 0.164 | 0.132 | 0.137 | 0.186 | 0.159 | 0.132
RERF-LC-KJ | 0.437 | 0.445 | 0.507 | 0.452 | 0.396 | 1.12 | 1.12 | 1.02 | 1.14 | 1.19 | 1.23 | 1.2 | 1.17 | 1.21 | 1.42 | 1.45 | 1.23 | 1.24 | 1.17 | 1.1
SK-LU-1 | 1.03 | 1.03 | 1.07 | 0.752 | 1.14 | 1.29 | 1.2 | 1.43 | 1.08 | 1.08 | 0.224 | 0.21 | 0.188 | 0.201 | 0.238 | 0.204 | 0.202 | 0.196 | 0.192 | 0.198
SW 1573 | – | 1.03 | 0.964 | 0.593 | 0.808 | 1.19 | 1.05 | 0.944 | 0.923 | 0.994 | 0.325 | 0.253 | 0.424 | 0.586 | 0.13 | 0.203 | 0.185 | 0.212 | 0.152 | 0.215
UMC-11 | 0.866 | 0.869 | 0.824 | 0.723 | 1.08 | 0.977 | 0.722 | 0.65 | 0.637 | 0.589 | 1.01 | 1.03 | 1.07 | 1.04 | 1.14 | 0.964 | 1.06 | 1.1 | 0.967 | 1.04
